Activity calls are given as the source filed them. The calls are words filed in the database; no cut-off is given here.
Key:
[1] = target: T1, Alpha-glucosidase (Saccharomyces cerevisiae S288c, UniProt P53341+P38158+P07265); experiment: Binding affinity to alpha-glucosidase assessed as inhibition constant; assay type: protein assay
[2] = target: T2, Alpha-glucosidase (Saccharomyces cerevisiae S288c) (UniProt P53341+P38158+P07265); experiment: Inhibition of alpha-glucosidase using 4-Nitrophenyl-[…]-D-glucopyranoside (pNPG) as substrate assessed as inhibition rate at 30 uM relative control; assay type: protein assay
[3] = target: T1, Alpha-glucosidase; experiment: Inhibition of alpha-glucosidase using 4-Nitrophenyl-[…]-D-glucopyranoside (pNPG) as substrate; assay type: protein assay
[4] = Cytotoxicity against human LO2 cells assessed as cell viability measured after 24 hrs by MTT assay; assay type: toxicity, cell-based, L02
[5] = system: alpha-glucosidase (unknown origin); experiment: Selectivity index, ratio of CC50 for Cytotoxicity against human LO2 cells to IC50 for alpha-glucosidase (unknown origin); assay type: toxicity, cell-based, L02; conditions: read-out: Selectivity Index
[6] = target: T2, Alpha-glucosidase (Saccharomyces cerevisiae S288c); experiment: Mixed-type of inhibition at alpha-glucosidase assessed as decrease in Km by Lineweaver-Burk plot analysis; assay type: protein assay
[7] = target: T2, Alpha-glucosidase (Saccharomyces cerevisiae S288c); experiment: Mixed-type of inhibition at alpha-glucosidase assessed as decrease in Vmax by Lineweaver-Burk plot analysis; assay type: protein assay
[8] = target: T1, Alpha-glucosidase; experiment: Binding affinity to alpha-glucosidase assessed as inhibition constant for protein substrate (alpha-Glu-pNPG) complex; assay type: protein assay
[9] = target: T2, Alpha-glucosidase (Saccharomyces cerevisiae S288c); experiment: Binding affinity to alpha-glucosidase assessed as quenching by measuring decrease in fluorescent intensity at 0 to 8 uM; assay type: protein assay; conditions: dose 0-8 µM
[10] = target: T2, Alpha-glucosidase (Saccharomyces cerevisiae S288c); experiment: Binding affinity to alpha-glucosidase assessed as quenching by measuring decrease in fluorescent intensity by […] fluorescence spectroscopy; assay type: protein assay
[11] = target: T2, Alpha-glucosidase (Saccharomyces cerevisiae S288c); experiment: Binding affinity to alpha-glucosidase assessed as fluorescent intensity (lambda-ex/lambda-em 285/320 nm) by 3D fluorescence spectra; assay type: protein assay
[12] = target: T2, Alpha-glucosidase (Saccharomyces cerevisiae S288c); experiment: Binding affinity to alpha-glucosidase assessed as fluorescent intensity (lambda-ex/lambda-em 276/332 nm) by 3D fluorescence spectra; assay type: protein assay
[13] = Acute toxicity in C57BL/6J mouse assessed as signs of death or toxicity at 0.5 g/Kg single dose monitored over 14 days; conditions: in vivo, 500 mg/kg, 336 h, time 14 day
[14] = Acute toxicity in C57BL/6J mouse assessed as change in serum ALB level at 0.5 g/Kg single dose; conditions: in vivo, 500 mg/kg
[15] = Acute toxicity in C57BL/6J mouse assessed as change in serum AST level at 0.5 g/Kg single dose; conditions: in vivo, 500 mg/kg
[16] = Acute toxicity in C57BL/6J mouse assessed as change in serum ALT level at 0.5 g/Kg single dose; conditions: in vivo, 500 mg/kg
[17] = Acute toxicity in C57BL/6J mouse assessed as change in serum BUN level at 0.5 g/Kg single dose; conditions: in vivo, 500 mg/kg
[18] = Acute toxicity in C57BL/6J mouse assessed as pathological damages in heart at 0.5 g/Kg single dose by HE staining based analysis; assay type: tissue-based; conditions: in vivo, 500 mg/kg
[19] = Acute toxicity in C57BL/6J mouse assessed as pathological damages in liver at 0.5 g/Kg single dose by HE staining based analysis; assay type: tissue-based; conditions: in vivo, 500 mg/kg
[20] = Acute toxicity in C57BL/6J mouse assessed as pathological damages in spleen at 0.5 g/Kg single dose by HE staining based analysis; assay type: tissue-based; conditions: in vivo, 500 mg/kg
[21] = Acute toxicity in C57BL/6J mouse assessed as pathological damages in lung at 0.5 g/Kg single dose by HE staining based analysis; assay type: tissue-based; conditions: in vivo, 500 mg/kg
[22] = Acute toxicity in C57BL/6J mouse assessed as pathological damages in kidney at 0.5 g/Kg single dose by HE staining based analysis; assay type: tissue-based; conditions: in vivo, 500 mg/kg
[23] = Acute toxicity in C57BL/6J mouse assessed as pathological damages in brain at 0.5 g/Kg single dose by HE staining based analysis; assay type: tissue-based; conditions: in vivo, 500 mg/kg
[24] = system: Mus musculus; experiment: Reduction in blood glucose concentration in male C57BL/6J mouse assessed as peak blood glucose and glucose AUC preadministered for 30 mins via gavage followed by treated 2 g/Kg of sucrose and measured up to 120 mins post sucrose challenge by sucrose loading test; assay type: functional, organism-based; conditions: dose 100.0 mg/kg, time 150.0 min
[25] = system: Mus musculus; experiment: In vivo hypoglycemic effect in STZ-induced diabetic C57BL/6J mouse model assessed as decrease in fasting blood glucose at 100 mg/kg treated via gavage measured after 7 days by fasting blood glucose test; assay type: functional, organism-based; conditions: time 7.0 day
[26] = Toxicity in STZ-induced diabetic C57BL/6J mouse model assessed as body weight at 100 mg/kg treated via gavage measured after 7 days; assay type: organism-based; conditions: in vivo, po, 168 h, time 7 day
[27] = system: Mus musculus; experiment: In vivo hypoglycemic effect in STZ-induced diabetic C57BL/6J mouse model assessed as decrease in postprandial blood glucose at 100 mg/kg treated via gavage measured up to 120 mins by Oral glucose tolerance test (OGTT); assay type: functional, organism-based
[28] = system: Mus musculus; experiment: Reduction in triglycerides (TG) level in STZ-induced diabetic C57BL/6J mouse model treated via gavage by blood biochemistry index test; assay type: functional, organism-based; conditions: dose 25-100 mg/kg
[29] = system: Mus musculus; experiment: Reduction in total cholesterol (CHO) level in STZ-induced diabetic C57BL/6J mouse model treated via gavage by blood biochemistry index test; assay type: functional, organism-based
[30] = system: Mus musculus; experiment: Reduction in low density lipoproteins (LDL) level in STZ-induced diabetic C57BL/6J mouse model treated via gavage by blood biochemistry index test; assay type: functional, organism-based
[31] = system: Mus musculus; experiment: Induction of high density lipoproteins (HDL) level in STZ-induced diabetic C57BL/6J mouse model treated via gavage by blood biochemistry index test; assay type: functional, organism-based
[32] = system: Mus musculus; experiment: Anti-oxidant effect in level in STZ-induced diabetic C57BL/6J mouse model assessed as […] in malondialdehyde (MDA) level in serum at 100 mg/kg treated via gavage; assay type: functional, organism-based
[33] = system: Mus musculus; experiment: Anti-oxidant effect in level in STZ-induced diabetic C57BL/6J mouse model assessed as […] in glutathione (GSH) level in serum at 100 mg/kg treated via gavage; assay type: functional, organism-based
[34] = system: Mus musculus; experiment: Anti-oxidant effect in level in STZ-induced diabetic C57BL/6J mouse model assessed as […] in total superoxide dismutase (T-SOD) level in serum at 100 mg/kg treated via gavage; assay type: functional, organism-based
[35] = system: Mus musculus; experiment: Anti-oxidant effect in level in STZ-induced diabetic C57BL/6J mouse model assessed as […] in catalase (CAT) level in serum at 100 mg/kg treated via gavage; assay type: functional, organism-based

CC1(C)CC[C@]2(C(=O)NCc3cn(-c4ccc(Cl)c(Cl)c4)nn3)[C@H](O)C[C@]3(C)C(=CC[C@@H]4[C@@]5(C)CC[C@H](O)C(C)(C)[C@@H]5CC[C@]43C)[C@@H]2C1
Ki [1]: 15.31 µM | inhibition [2]: 88.1% | IC50 [3]: 2.72 µM | CC50 at 24 h [4]: 287 µM | selectivity ratio [5]: 105 | inhibition [6]: Active | inhibition [7]: Active | Ki [8]: 10.23 µM | Activity [9]: Active | Activity [10]: Active | Activity [11]: Active | Activity [12]: Active | Activity [13]: Non-toxic | Activity [14]: Non-toxic | Activity [15]: Non-toxic | Activity [16]: Non-toxic | Activity [17]: Non-toxic | Activity [18]: Non-toxic | Activity [19]: Non-toxic | Activity [20]: Non-toxic | Activity [21]: Non-toxic | Activity [22]: Non-toxic | Activity [23]: Non-toxic | Activity [24]: Dose-dependent-effect; Compound Showed Comparable Effect To Acarbose | Activity [25]: Active | Activity [26]: Non-toxic | Activity [27]: Active; Evidenced By Compound Showed Lower Auc Compared With Model Group | Activity [28]: Dose-dependent-effect | Activity [29]: Dose-dependent-effect | Activity [30]: Dose-dependent-effect | Activity [31]: Dose-dependent-effect | Activity [32]: Active | Activity [33]: Active | Activity [34]: Active | Activity [35]: Active
